# According to US8455510B2:
# pIC50: −log10 of the molar value. “And” between values parts separate entries of the source, which are not always exact repeats. Equal values may be shown once. Read-outs that look alike come from different tables or passages of the source.
# Assays:
# [1] = tested on: normal mouse spleen T lymphocytes induced by ConA; test: 3H-TdR incorporation, ConA-induced T lymphocyte proliferation; assay type: cell-based, BALB/c mice; conditions: ConA 5 μg/ml, 48 hours, 3H-TdR, read-out: IC50, proliferation of T lymphocytes induced by ConA
# Method: ^3H-thymidine incorporation was adopted to measure the effect of the in vitro administered compound on the proliferation function of the spleen lymphocytes of normal mice induced by a mixed culture of mitogen/allogeneic mouse spleen lymphocytes, and evaluate the in vitro immunosuppressive activity of the compound.
# Measurement of the effects of compounds on the proliferation function of mouse spleen lymphocytes induced by mitogen by ^3H-TdR incorporation: 100 μl cell suspension of mouse spleen lymphocytes was inoculated on a 96-well plate (4×10^5 per well), followed by addition of 50 μl of ConA (final concentration: 5 μg/ml), 50 μl of LPS (final concentration: […]) or 50 μl of compound at different concentrations. The total volume of each well was 200 μl. The test was carried out in triplicate wells for each concentration, and included control wells without ConA/LPS or the compound. After the 96-well plate was placed in an incubator at 37° C. with 5% CO2 for 48 hours, 25 μl of ^3H-thymidine (10 μCi/ml) was added in each well 8 hours before the end of incubation. […] The amount of ^3H-TdR incorporated in cell DNA was determined by a Beta cell counter (MicroBeta Trilux, PerkinElmer), and the cell proliferation was represented as a cpm value.
# [2] = Distribution profile of prototype drug and rapamycin in plasma, liver and tumor of nude mice (LC-MS); assay type: in vivo; design: AUC0-t (ng · h/g or ng · h/ml): concentration or dose not given beside the values; conditions: for concentration at 0.5 h / concentration at 2 h / concentration at 5 h: nude, mouse; for AUC0-t (ng · h/g or ng · h/ml): substance determined: Sirolimus
# T Cells = test: Immunosuppressive activity assay: T cells inhibitory activity; assay type: cell-based; conditions: T-cell; Table 10
# [3] = tested on: DNFB-induced delayed type hypersensitivity reaction; test: DNFB-induced delayed type hypersensitivity reaction in mice; assay type: in vivo, BALB/c mice; conditions: 1.5 mg/kg/d, intraperitoneal injection; model control 0.175 mm
# Method: The delayed type hypersensitivity (DTH) reaction in mice was induced by DNFB to evaluate the inhibition effect of the compound on DTH in vivo. […] Preparation method: the compound was dissolved in anhydrous alcohol to prepare a stock solution (50 mg/ml), which was diluted to the desired concentration when use by using a solution of 5% PEG400, 5% Tween-80 in sterile water as a solvent. […] DNFB combined with dermal protein to form a complete antigen after sensitizing on feet of mice. One week later, mice were attacked by DNFB on ears to induce a local delayed allergic reaction, i.e., the delayed type hypersensitivity reaction to cause ear swelling, while the delayed type hypersensitivity reaction would not be observed on the ear which had not been attacked. Therefore, the ear swelling can reflect the level of the delayed type hypersensitivity reaction in mice induced by DNFB. (1) 20 μl of 0.5% DNFB solution in a mixture of acetone and olive oil (4:1) as a solvent was applied on both hind legs of mice for sensitization. […] (4) Thickness of the left and right ears of the mice was measured by a micrometer screw gauge, and the swelling was calculated by subtracting the thickness of the left ear from thickness of the right ear.
# [4] = tested on: human rhabdomyosarcoma RH-30 xenograft; test: RH-30 xenograft on nude mice; conditions: 1-5/2 w; for TV (mm^3) d0: baseline;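 for all read-outs here: male BALB/cA nude mice with subcutaneous RH-30 tumors, oral dosing versus solvent-fed controls, caliper tumor volume, RTV relative to grouping day, T/C as treated RTV over control RTV ×100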
# Excerpt: Animals: BALB/cA nude mice, male, 40-45 days old, body weight: 21±2 g, provided by Shanghai Institute of Materia Medica, Chinese Academy of Sciences. License No.: SCXK (Shanghai) 2004-0002. Animal number in each group: 6 in negative control group, and 6 in administration group.
# The amount of inoculated cells was 5×10^6. After the xenograft was formed by inoculation, it was used after passed for 3 generations in nude mice.
# [5] = tested on: SRBC-induced specific antibody-producing cells in spleen lymphocytes; test: Quantitative hemolysis of sheep red blood cells (QHS) assay; assay type: in vivo, BALB/c mice; conditions: 1.5 mg/kg, intraperitoneal injection
# Excerpt: It is a classic experimental method to determine the generation of antigen-specific antibody with SRBC hemolytic reaction in SRBC-induced mouse humoral immunity model. The quantitative hemolysis of sheep red blood cells (QHS) assay is an experimental method for evaluating the amount of the antibody secreted, which is based on the principle that the sheep red blood cells are hemolyzed by the anti-SRBC specific antibody secreted by B lymphocytes (plasma cells) to release haemoglobin. After mice are sensitized by sheep red blood cells (SRBC), there will appear cells which can secrete specific antibody in mouse spleen lymphocytes. The Antibody secreted by such cells could hemolyze SRBC with the synergistic action of the complement. Therefore, the amount of the cells secreting the specific antibody can be evaluated by determining the hemolytic degree by spectrophotometry. […] BALB/c mice were randomly divided into 5 groups with 6 mice in each group. […] When immunized, the mice in each group were administered by intraperitoneal injection once daily until 5 days after the immunization. The mice in model control group were administered daily with the solvent. 2. […] Each mice was introperitoneally injected with 0.2 ml of the diluted SRBC for sensitizing. 3. QHS assay was carried out 5 days after the sensitization: The mouse spleen was collected to produce the spleen lymphocytes. […] The mixture was kept at 37° C. for 1 hour, and then centrifugated at 3000 rpm for 10 min. […] The quantitative hemolysis of sheep red blood cells (QHS) assay uses the amount of haemoglobin (OD value) released from the hemolysis of red blood cells by the antibody secreted by B cells to indicate the level of humoral immunity in body. Inhibition of specific antibody-secreting cells %=(OD of model control group-OD of administration group)/(OD of model control group-OD of normal control group)
# [6] = 0.5 h after administration, individual animals
# [7] = 2.0 h after administration, individual animals
# [8] = 5.0 h after administration, individual animals
# [9] = 12 h after administration, individual animals
# [10] = 48 h after administration, individual animals
compound,measurement,setting,value
CO[C@H]1C[C@@H]2CC[C@@H](C)[C@@](O)(O2)C(=O)C(=O)N2CCCC[C@H]2C(=O)O[C@H]([C@H](C)C[C@@H]2CC[C@@H](OC(=O)OCC(O)CO)[C@H](OC)C2)CC(=O)[C@H](C)/C=C(\C)[C@@H](O)[C@@H](OC)C(=O)[C@H](C)C[C@H](C)/C=C/C=C/C=C/1C (some centres unmarked) [Y31],pIC50,[1],6.48
same,"Y31 (prototype) concentration, Blood Plasma",[2]; [6],2.47 ng/mL and 3.03 ng/mL
same,"Y31 (prototype) concentration, Liver",[2]; [6],14.3 ng/g and 6.24 ng/g and 8.61 ng/g
same,"Y31 (prototype) concentration, Tumor",[2]; [6],"BLQ (BLQ: below the limit of Quantitation, 0.2 ng/ml (blood plasma); 1.0 ng/g(tissue))"
same,"Y31 (prototype) concentration, Blood Plasma",[2]; [7],0.70 ng/mL and 0.58 ng/mL and 0.20 ng/mL
same,"Y31 (prototype) concentration, Liver",[2]; [7],13.4 ng/g and 17.4 ng/g
same,"Y31 (prototype) concentration, Tumor",[2]; [7],"BLQ (BLQ: below the limit of Quantitation, 0.2 ng/ml (blood plasma); 1.0 ng/g(tissue))"
same,"Y31 (prototype) concentration, Blood Plasma",[2]; [8],"BLQ (BLQ: below the limit of Quantitation, 0.2 ng/ml (blood plasma))"
same,"Y31 (prototype) concentration, Liver",[2]; [8],0.88 ng/g and 0.91 ng/g and 2.16 ng/g
same,"Y31 (prototype) concentration, Tumor",[2]; [8],"BLQ (BLQ: below the limit of Quantitation, 0.2 ng/ml (blood plasma); 1.0 ng/g(tissue))"
same,"Y31 (prototype) concentration, Blood Plasma",[2]; [9],"BLQ (BLQ: below the limit of Quantitation, 0.2 ng/ml (blood plasma))"
same,"Y31 (prototype) concentration, Liver",[2]; [9],"BLQ (BLQ: below the limit of Quantitation, 0.2 ng/ml (blood plasma); 1.0 ng/g(tissue))"
same,"Y31 (prototype) concentration, Tumor",[2]; [9],"BLQ (BLQ: below the limit of Quantitation, 0.2 ng/ml (blood plasma); 1.0 ng/g(tissue))"
same,"Y31 (prototype) concentration, Blood Plasma",[2]; [10],"BLQ (BLQ: below the limit of Quantitation, 0.2 ng/ml (blood plasma))"
same,"Y31 (prototype) concentration, Liver",[2]; [10],"BLQ (BLQ: below the limit of Quantitation, 0.2 ng/ml (blood plasma); 1.0 ng/g(tissue))"
same,"Y31 (prototype) concentration, Tumor",[2]; [10],"BLQ (BLQ: below the limit of Quantitation, 0.2 ng/ml (blood plasma); 1.0 ng/g(tissue))"
same,maximum concentration of the prototype drug in blood plasma and tissues,[2]; after administration to nude mice,less than 20 ng/ml or ng/g
same,prototype drug 5 hours after the administration,[2]; blood plasma and tissues,not detectable
same,concentration at 0.5 h,"[2]; liver, 0.5 h after administration, mean of 3 animals, read-out: Y31 (prototype) concentration, Liver, Mean Value",9.72 ng/g
same,concentration at 2 h,"[2]; liver, 2.0 h after administration, individual animals, read-out: Y31 (prototype) concentration, Liver",12.4 ng/g
same,concentration at 2 h,"[2]; liver, 2.0 h after administration, mean of 3 animals, read-out: Y31 (prototype) concentration, Liver, Mean Value",14.4 ng/g
same,concentration at 5 h,"[2]; liver, 5.0 h after administration, mean of 3 animals, read-out: Y31 (prototype) concentration, Liver, Mean Value",1.32 ng/g
same,concentration at 0.5 h,"[2]; plasma, 0.5 h after administration, individual animals, read-out: Y31 (prototype) concentration, Blood Plasma",1.7 ng/mL
same,concentration at 0.5 h,"[2]; plasma, 0.5 h after administration, mean of 3 animals, read-out: Y31 (prototype) concentration, Blood Plasma, Mean Value",2.4 ng/mL
same,concentration at 2 h,"[2]; plasma, 2.0 h after administration, mean of 3 animals, read-out: Y31 (prototype) concentration, Blood Plasma, Mean Value",0.49 ng/mL
same,concentration at 5 h,"[2]; plasma, 5.0 h after administration, individual animals, read-out: Y31 (prototype) concentration, Blood Plasma",0.18 ng/mL
same,AUC0-t (ng · h/g or ng · h/ml),[2]; Liver,4031 ng·h/g
same,AUC0-t (ng · h/g or ng · h/ml),[2]; Tumor,2948 ng·h/g
same,pIC50,T Cells,7.30
same,average ear swelling degree,[3],0.129 mm
same,Body Weight (g) end,"[4]; Table 4, 2.5 mg/kg po",21.2 g
same,Body Weight (g) start,"[4]; Table 4, 2.5 mg/kg po",19.2 g
same,RTV,"[4]; Table 4, 2.5 mg/kg po",1.6 ± 0.6
same,T/C (%),"[4]; Table 4, 2.5 mg/kg po",37.1%
same,TV (mm^3) d14,"[4]; Table 4, 2.5 mg/kg po",259 ± 130 mm^3
same,TV (mm^3) d0,"[4]; Table 4, 2.5 mg/kg po",159 ± 36 mm^3
same,Body Weight (g) end,"[4]; Table 4, 5 mg/kg po",21.7 g
same,Body Weight (g) start,"[4]; Table 4, 5 mg/kg po",20.8 g
same,RTV,"[4]; Table 4, 5 mg/kg po",2.0 ± 0.5
same,T/C (%),"[4]; Table 4, 5 mg/kg po",45.5%
same,TV (mm^3) d14,"[4]; Table 4, 5 mg/kg po",316 ± 153 mm^3
same,TV (mm^3) d0,"[4]; Table 4, 5 mg/kg po",160 ± 53 mm^3
same,Inhibition of Specific Antibody-secreting cells %,[5],93.03%
same,Quantitative hemolysis OD Value,"[5]; model control 0.3887, normal control 0.3036",0.3095
